Where two headings read alike, the source gives them in different places.
System: HIV-1 (H9/IIIB strain) virus
Assay: microbe, parasite or virus in culture
Format: cell-based
Conditions: MT4-GFP cells infected with HIV-1 H9/IIIB, inhibition of reproductive ratio
[1] = 0% NHS condition (RPMI 1640), read-out: Viking, IC50 (0% NHS)
[2] = 100% normal human serum (NHS) condition, read-out: Viking, IC50 (100% NHS)

Row | Compound | IC50 [1] [µM] | IC50 [2] [µM]
1 | COC1CCN2CN(CC1)n1cc(C(=O)NCc3ccc(F)c(Cl)c3F)c(=O)c(O)c1C2=O (single isomer, unassigned) [Example 21D] | 0.002 | 0.472
2 | COC1CCN2CN(CC1)n1cc(C(=O)NCc3c(F)cccc3F)c(=O)c(O)c1C2=O (single isomer, unassigned) [Example 22A] | 0.0082 | 0.333
3 | COC1CCN2CN(CC1)n1cc(C(=O)NCc3c(F)cccc3F)c(=O)c(O)c1C2=O (single isomer, unassigned) [Example 22B] | 0.0016 | 0.161
4 | COC1CCN2CN(CC1)n1cc(C(=O)NCc3c(F)cccc3F)c(=O)c(O)c1C2=O (single isomer, unassigned) [Example 22C] | 0.002 | 0.088
5 | COC1CCN2CN(CC1)n1cc(C(=O)NCc3c(F)cccc3F)c(=O)c(O)c1C2=O (single isomer, unassigned) [Example 22D] | 0.0014 | 0.311
6 | COC1CCN2CN(CC1)n1cc(C(=O)NCc3cccc(F)c3F)c(=O)c(O)c1C2=O (single isomer, unassigned) [Example 23A] | 0.0058 | 0.728
7 | COC1CCN2CN(CC1)n1cc(C(=O)NCc3cccc(F)c3F)c(=O)c(O)c1C2=O (single isomer, unassigned) [Example 23B] | 0.0021 | 0.314
8 | COC1CCN2CN(CC1)n1cc(C(=O)NCc3cccc(F)c3F)c(=O)c(O)c1C2=O (single isomer, unassigned) [Example 23C] | 0.0043 | 0.083
9 | COC1CCN2CN(CC1)n1cc(C(=O)NCc3cccc(F)c3F)c(=O)c(O)c1C2=O (single isomer, unassigned) [Example 23D] | 0.0019 | 0.567
10 | O=C(NCc1ccc(F)cc1F)c1cn2c(c(O)c1=O)C(=O)N1CCCCN2C1 [Example 2A] | 0.00404 | 4.16
11 | O=C(NCc1ccc(F)cc1F)c1cn2c(c(O)c1=O)C(=O)N1CCCCN2C1 [Example 2B] | 0.00153 | 0.234
12 | O=C(NCc1ccc(F)cc1F)c1cn2c(c(O)c1=O)C(=O)N1CCCCCN2C1 [Example 8A] | 0.00103 | 1.57
13 | O=C(NCc1ccc(F)cc1F)c1cn2c(c(O)c1=O)C(=O)N1CCCCCN2C1 [Example 8B] | 0.00086 | 0.122
14 | O=C(NCc1cccc(Cl)c1F)c1cn2c(c(O)c1=O)C(=O)N1CCCCCN2C1 [Example 9A] | 0.00257 | 5.62
15 | O=C(NCc1cccc(Cl)c1F)c1cn2c(c(O)c1=O)C(=O)N1CCCCCN2C1 [Example 9B] | 0.00115 | 0.196
16 | O=C(NCc1ccc(F)c(Cl)c1F)c1cn2c(c(O)c1=O)C(=O)N1CCCCCN2C1 [Example 10A] | 0.00189 | 8.58
17 | O=C(NCc1ccc(F)c(Cl)c1F)c1cn2c(c(O)c1=O)C(=O)N1CCCCCN2C1 [Example 10B] | 0.00165 | 0.225
18 | O=C(NCc1c(F)ccc(Cl)c1F)c1cn2c(c(O)c1=O)C(=O)N1CCCCCN2C1 [Example 11A] | 0.00345 | 12.5

Row | Compound | IC50 [1] [µM] | IC50 [2] [µM]
19 | O=C(NCc1c(F)ccc(Cl)c1F)c1cn2c(c(O)c1=O)C(=O)N1CCCCCN2C1 [Example 11B] | 0.00209 | 0.358
20 | O=C(NCc1c(F)ccc(Cl)c1F)c1cn2c(c(O)c1=O)C(=O)N1CCCCCCN2C1 [Example 12A] | 0.0143 | 10.7
21 | O=C(NCc1c(F)ccc(Cl)c1F)c1cn2c(c(O)c1=O)C(=O)N1CCCCCCN2C1 [Example 12B] | 0.00321 | 0.428
22 | O=C(NCc1cccc(Cl)c1F)c1cn2c(c(O)c1=O)C(=O)N1CCOCCN2C1 [Example 13A] | 0.00274 | 3.36
23 | O=C(NCc1cccc(Cl)c1F)c1cn2c(c(O)c1=O)C(=O)N1CCOCCN2C1 [Example 13B] | 0.00219 | 0.146
24 | O=C(NCc1c(F)cc(F)cc1F)c1cn2c(c(O)c1=O)C(=O)N1CCOCCN2C1 [Example 14A] | 0.0054 | 4.21
25 | O=C(NCc1c(F)cc(F)cc1F)c1cn2c(c(O)c1=O)C(=O)N1CCOCCN2C1 [Example 14B] | 0.00166 | 0.157
26 | O=C(NCc1ccc(F)c(Cl)c1F)c1cn2c(c(O)c1=O)C(=O)N1CCOCCN2C1 [Example 15A] | 0.0037 | 10.7
27 | O=C(NCc1ccc(F)c(Cl)c1F)c1cn2c(c(O)c1=O)C(=O)N1CCOCCN2C1 [Example 15B] | 0.00161 | 0.224
28 | O=C(NCc1c(F)ccc(Cl)c1F)c1cn2c(c(O)c1=O)C(=O)N1CCOCCN2C1 [Example 16A] | 0.0027 | 12.3
29 | O=C(NCc1c(F)ccc(Cl)c1F)c1cn2c(c(O)c1=O)C(=O)N1CCOCCN2C1 [Example 16B] | 0.0012 | 0.247
30 | CN1CCN2CN(CC1)n1cc(C(=O)NCc3cccc(Cl)c3F)c(=O)c(O)c1C2=O [Example 24A] | 0.0051 | 0.665
31 | CN1CCN2CN(CC1)n1cc(C(=O)NCc3cccc(Cl)c3F)c(=O)c(O)c1C2=O [Example 24B] | 0.0035 | 0.485
32 | CN1CCN2CN(CC1)n1cc(C(=O)NCc3c(F)ccc(Cl)c3F)c(=O)c(O)c1C2=O [Example 25A] | 0.0045 | 1
33 | CN1CCN2CN(CC1)n1cc(C(=O)NCc3c(F)ccc(Cl)c3F)c(=O)c(O)c1C2=O [Example 25B] | 0.0021 | 0.139
34 | O=C(NCc1ccc(F)cc1F)c1cn2c(c(O)c1=O)C(=O)N1CCC(F)(F)CCN2C1 [Example 26A] | 0.0066 | 0.869
35 | O=C(NCc1ccc(F)cc1F)c1cn2c(c(O)c1=O)C(=O)N1CCC(F)(F)CCN2C1 [Example 26B] | 0.0032 | 0.091

Reference: patent US11413292B2, “Tricyclic heterocycle compounds useful as HIV integrase inhibitors” (Merck Sharp & Dohme Corp., priority 2018, dated 2022)
